# Measured values published in publication PMC8838590, “Recognition of Dimethylarginine Analogues by Tandem Tudor Domain Protein Spindlin1” (Molecules, 2022).
# Starred links: 1 amine or outer side, 2 acyl side, 3 side chain; linkers in the order of their positions; H or OH if unused. Non-standard residues stand in square brackets, D forms with d. Residues, ends and D or L forms follow the SMILES beside them. Groups on a side chain read outwards from the residue. X3 = N=C(NCCC[C@H](N[*:1])C(=O)[*:2])N1CCCCC1; X2 = CCN(CC)C(=N)NCCC[C@H](N[*:1])C(=O)[*:2]; X4 = N=C(NCCC[C@H](N[*:1])C(=O)[*:2])N1CCCC1; X5 = CN(C)C(=N)NCCCC[C@H](N[*:1])C(=O)[*:2]; X6 = CCN(C)C(=N)NCCC[C@H](N[*:1])C(=O)[*:2]; X1 = CN(C)C(=N)NCC[C@H](N[*:1])C(=O)[*:2]; Lys(Me3) = C[N+](C)(C)CCCC[C@H](N)C(=O)O; Orn = NCCC[C@H](N)C(=O)O; CO = O=C([*:1])[*:2]
# Legend:
# [1] = biological target: T1, Spindlin1 (SPIN1_49-262) (Homo sapiens, UniProt Q9Y657); test: Isothermal titration calorimetry of 15-mer H3K4me3X8 peptides binding to Spindlin1; details: ITC; for ΔH° / −TΔS°: 25.0 °C, 20 mM Tris, 100 mM NaCl pH 8.0, mean ± SD of 3 repeated ITC experiments
# T1 construct: SPIN1_49-262 was expressed and purified as described previously; His tag; made in house; host or cells: E. coli BL21
# T1 sequence (Q9Y657 49-262): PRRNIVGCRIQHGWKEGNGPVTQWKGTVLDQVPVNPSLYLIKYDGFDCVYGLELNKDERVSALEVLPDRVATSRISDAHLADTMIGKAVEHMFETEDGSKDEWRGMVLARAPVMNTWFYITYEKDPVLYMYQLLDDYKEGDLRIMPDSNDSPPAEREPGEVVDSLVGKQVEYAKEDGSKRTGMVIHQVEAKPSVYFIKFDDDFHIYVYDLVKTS
# Protocol: Spindlin1 was dialysed against ITC buffer containing 100 mM NaCl and 20 mM Tris HCl buffer (pH 8.0).
# SPIN1_49-262 was expressed and purified as described previously. Briefly, His-tagged SPIN1 was expressed in E.coli strain BL21 at 37 °C until OD600 = 2.0. Protein expression was induced by the addition of 0.1 mM IPTG, followed by incubation at 18 °C overnight. Bacteria were harvested by centrifugation and subsequent resuspension of the pellet in buffer containing 50 mM Hepes pH 7.5, 500 mM NaCl, 10 mM Imidazole, 5% glycerol, 0.5 mM TCEP, and a protease inhibitor cocktail (Sigma, St. Louis, MO, USA). After lysis and centrifugation, His-tagged SPIN1 was affinity purified by Ni^2+-NTA-agarose chromatography (Cytiva, Marlborough, MA, USA) applying a gradient of imidazole. Subsequent size exclusion chromatography (Superdex 75, Cytiva) was performed with buffer containing 10 mM Hepes pH 7.5, 500 mM NaCl, 5% glycerol, and 0.5 mM TCEP.
# Isothermal titration calorimetry was performed at 25 °C on a fully automated Microcal Auto-iTC200 (GE Healthcare Life Sciences, Marlborough, MA, USA). SPIN1_49-262 was dialysed against ITC buffer containing 20 mM Tris, 100 mM NaCl pH 8.0. Titrations were carried out with an initial injection of 0.5 μL, followed by 19 injections of 2 μL at a total concentration of 20 μM SPIN1_49-262 and 150-370 μM peptide. Fitting and analyses of the acquired titration curves were performed with Origin 6.0 (Microcal Inc., Northampton, MA, USA) using the One Set of Binding Sites model.
# [2] = biological target: H3K4me3K9me3 peptide (Homo sapiens) (UniProt P68431); details: cited from earlier work
# [3] = biological target: H3K4me3R8me2a 10-mer peptide (Homo sapiens) (UniProt P68431); details: cited from earlier work
# [4] = biological target: H3K4me3R8me2s peptide (Homo sapiens) (UniProt P68431); details: cited from earlier work
# [5] = biological target: H3K4me3R8me1 peptide (Homo sapiens) (UniProt P68431); details: cited from earlier work
# [6] = biological target: H4K20me3 peptide (Homo sapiens) (UniProt P62805); details: cited from earlier work
# Chain of Spindlin1 (Q9Y657 whole entry): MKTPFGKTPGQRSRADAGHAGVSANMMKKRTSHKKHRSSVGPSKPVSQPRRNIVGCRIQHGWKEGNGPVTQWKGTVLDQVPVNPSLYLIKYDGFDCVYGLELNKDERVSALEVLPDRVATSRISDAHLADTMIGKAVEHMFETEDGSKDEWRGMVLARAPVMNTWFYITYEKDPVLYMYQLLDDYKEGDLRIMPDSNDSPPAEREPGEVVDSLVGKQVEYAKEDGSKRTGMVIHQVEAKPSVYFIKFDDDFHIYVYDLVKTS
Compound,ΔH° ([1]; SD),−TΔS° ([1]; SD),other results
C[C@H](N)C(=O)N[C@@H](CCCNC(=N)N)C(=O)N[C@H](C(=O)N[C@@H](CCCC[N+](C)(C)C)C(=O)N[C@@H](CCC(N)=O)C(=O)N[C@H](C(=O)N[C@@H](C)C(=O)N[C@@H](CCCNC(=N)N1CCCC1)C(=O)N[C@@H](CCCCN)C(=O)N[C@@H](CO)C(=O)N[C@H](C(=O)NCC(=O)NCC(=O)N[C@@H](CCCCN)C(=O)N[C@@H](C)C(N)=O)[C@@H](C)O)[C@@H](C)O)[C@@H](C)O [H3K4me3R8pyr] (H-ART[Lys(Me3)]QTA[X4]KSTGGKA-NH2),-22.5 ± 0.4 kcal/mol,13.0 ± 0.5 kcal/mol,
C[C@H](N)C(=O)N[C@@H](CCCNC(=N)N)C(=O)N[C@H](C(=O)N[C@@H](CCCC[N+](C)(C)C)C(=O)N[C@@H](CCC(N)=O)C(=O)N[C@H](C(=O)N[C@@H](C)C(=O)N[C@@H](CCCNC(=N)N1CCCCC1)C(=O)N[C@@H](CCCCN)C(=O)N[C@@H](CO)C(=O)N[C@H](C(=O)NCC(=O)NCC(=O)N[C@@H](CCCCN)C(=O)N[C@@H](C)C(N)=O)[C@@H](C)O)[C@@H](C)O)[C@@H](C)O [H3K4me3R8pip] (H-ART[Lys(Me3)]QTA[X3]KSTGGKA-NH2),-20.9 ± 0.3 kcal/mol,11.2 ± 0.1 kcal/mol,
Spindlin1 (from UniProt Q9Y657),,,Kd [2]: 16 nM; Kd [3]: 45 nM; Kd [4]: 66 nM; Kd [5]: 139 nM; Kd [6]: 800 nM
C[C@H](N)C(=O)N[C@@H](CCCNC(=N)N)C(=O)N[C@H](C(=O)N[C@@H](CCCC[N+](C)(C)C)C(=O)N[C@@H](CCC(N)=O)C(=O)N[C@H](C(=O)N[C@@H](C)C(=O)N[C@@H](CCCNC(=O)N(C)C)C(=O)N[C@@H](CCCCN)C(=O)N[C@@H](CO)C(=O)N[C@H](C(=O)NCC(=O)NCC(=O)N[C@@H](CCCCN)C(=O)N[C@@H](C)C(N)=O)[C@@H](C)O)[C@@H](C)O)[C@@H](C)O [H3K4me3Cit8me2] (H-ART[Lys(Me3)]QTA[Orn]([CO-NMe2])KSTGGKA-NH2),-15.6 ± 0.3 kcal/mol,5.9 ± 0.2 kcal/mol,ΔΔH° ([1]; relative to H3K4me3R8me2a): 1.7 kcal/mol; −TΔΔS° ([1]; relative to H3K4me3R8me2a): -1.1 kcal/mol
C[C@H](N)C(=O)N[C@@H](CCCNC(=N)N)C(=O)N[C@H](C(=O)N[C@@H](CCCC[N+](C)(C)C)C(=O)N[C@@H](CCC(N)=O)C(=O)N[C@H](C(=O)N[C@@H](C)C(=O)N[C@@H](CCNC(=N)N(C)C)C(=O)N[C@@H](CCCCN)C(=O)N[C@@H](CO)C(=O)N[C@H](C(=O)NCC(=O)NCC(=O)N[C@@H](CCCCN)C(=O)N[C@@H](C)C(N)=O)[C@@H](C)O)[C@@H](C)O)[C@@H](C)O [H3K4me3nR8me2a] (H-ART[Lys(Me3)]QTA[X1]KSTGGKA-NH2),-16.9 ± 1.3 kcal/mol,6.8 ± 1.2 kcal/mol,
C[C@H](N)C(=O)N[C@@H](CCCNC(=N)N)C(=O)N[C@H](C(=O)N[C@@H](CCCC[N+](C)(C)C)C(=O)N[C@@H](CCC(N)=O)C(=O)N[C@H](C(=O)N[C@@H](C)C(=O)N[C@@H](CCCCNC(=N)N(C)C)C(=O)N[C@@H](CCCCN)C(=O)N[C@@H](CO)C(=O)N[C@H](C(=O)NCC(=O)NCC(=O)N[C@@H](CCCCN)C(=O)N[C@@H](C)C(N)=O)[C@@H](C)O)[C@@H](C)O)[C@@H](C)O [H3K4me3hR8me2a] (H-ART[Lys(Me3)]QTA[X5]KSTGGKA-NH2),-20.9 ± 0.7 kcal/mol,11.0 ± 0.7 kcal/mol,

# Further lines, with some results ahead:
ΔH° ([1]; SD),−TΔS° ([1]; SD),Compound,other results
-20.8 ± 0.6 kcal/mol,11.2 ± 0.6 kcal/mol,CCN(C)C(=N)NCCC[C@H](NC(=O)[C@H](C)NC(=O)[C@@H](NC(=O)[C@H](CCC(N)=O)NC(=O)[C@H](CCCC[N+](C)(C)C)NC(=O)[C@@H](NC(=O)[C@H](CCCNC(=N)N)NC(=O)[C@H](C)N)[C@@H](C)O)[C@@H](C)O)C(=O)N[C@@H](CCCCN)C(=O)N[C@@H](CO)C(=O)N[C@H](C(=O)NCC(=O)NCC(=O)N[C@@H](CCCCN)C(=O)N[C@@H](C)C(N)=O)[C@@H](C)O [H3K4me3R8etme] (H-ART[Lys(Me3)]QTA[X6]KSTGGKA-NH2),
-19.3 ± 0.6 kcal/mol,9.3 ± 0.6 kcal/mol,CCN(CC)C(=N)NCCC[C@H](NC(=O)[C@H](C)NC(=O)[C@@H](NC(=O)[C@H](CCC(N)=O)NC(=O)[C@H](CCCC[N+](C)(C)C)NC(=O)[C@@H](NC(=O)[C@H](CCCNC(=N)N)NC(=O)[C@H](C)N)[C@@H](C)O)[C@@H](C)O)C(=O)N[C@@H](CCCCN)C(=O)N[C@@H](CO)C(=O)N[C@H](C(=O)NCC(=O)NCC(=O)N[C@@H](CCCCN)C(=O)N[C@@H](C)C(N)=O)[C@@H](C)O [H3K4me3R8et2a] (H-ART[Lys(Me3)]QTA[X2]KSTGGKA-NH2),
-17.3 ± 1.9 kcal/mol,7.0 ± 1.9 kcal/mol,C[C@H](N)C(=O)N[C@@H](CCCNC(=N)N)C(=O)N[C@H](C(=O)N[C@@H](CCCC[N+](C)(C)C)C(=O)N[C@@H](CCC(N)=O)C(=O)N[C@H](C(=O)N[C@@H](C)C(=O)N[C@@H](CCCNC(=N)N(C)C)C(=O)N[C@@H](CCCCN)C(=O)N[C@@H](CO)C(=O)N[C@H](C(=O)NCC(=O)NCC(=O)N[C@@H](CCCCN)C(=O)N[C@@H](C)C(N)=O)[C@@H](C)O)[C@@H](C)O)[C@@H](C)O [H3K4me3R8me2a],ΔH° [1]: -17.3 kcal/mol; −TΔS° [1]: 7.0 kcal/mol
